Test results published in PubChem BioAssay AID1918931 (Molecular Pharmacology Branch, DTP, NCI, 2023).

System: 138582-337-R-J1-PDC complex spheroid viability
Experiment: Anticancer human tumor 138582-337-R-J1-PDC patient-derived Merkel cell tumor cell line growth inhibition
Settings: for IC50: curve of first compound; for viability, T/C: stronger effect = lower value
Source text: Multicellular complex tumor spheroid response to LSD1 Inhibitor Iadademstat in combination with a variety of drugs and investigational agents in selected tumor cell lines
The current study was undertaken to assess response to LSD1 inhibitors in combination with standard-of-care drugs and investigational agents in solid tumor complex spheroid models as well as in the K-562 leukemia. Complex spheroids include a stromal component modeled by human endothelial cells (HUVEC) and fibroblasts modeled by human mesenchymal stem cells (MSCs). The concentration ranges selected for each drug and investigational agent were based upon clinically achievable concentrations if the clinical Cmax of the agent was known.
Compounds. The drugs and investigational agents used in this study are listed on Table 1. All of the agents used, including staurosporine (NSC755774) and gemcitabine (NSC613327), were obtained from the Developmental Therapeutics Program, NCI. FDA-approved anticancer drugs are available from the NCI at http://dtp.nci.nih.gov/branches/dscb/oncology_drugset_explanation.html. Drugs and investigational agents were >95% pure by proton nuclear magnetic resonance (NMR) and liquid chromatography/mass spectrometry (LC/MS). Stock solutions were prepared at 400x in DMSO, stored at -70 degrees C, and diluted in fresh medium prior to their use. The final concentration of DMSO in cell culture wells never exceeded 0.25% (v/v). The FDA-approved anticancer drug set is available from the Developmental Therapeutics Program at https://dtp.cancer.gov/organization/dscb/obtaining/available_plates.htm. All drugs and investigational agents were tested over a range starting from a high concentration at or near the clinical Cmax and decreasing in half-log increments. If the clinical Cmax for an agent had not been determined, the highest concentration tested was 10 microM.
Cell Lines. The patient-derived cancer cell (PDC) lines: 292921-168-R-J2-PDC, K24384-001-R-PDC, and 521955-158-R2-J5-PDC pancreatic carcinomas, 556581-035-R-J1 ovarian carcinoma, 324938-238-R-J1-PDC, 855422-203-R-J1-PDC and 883617-216-R-J1-PDC urothelial bladder carcinomas, 743489-274-T-PDC renal cell carcinoma, 138582-R-J1 Merkel cell tumor, K60290-347-R-J1 and K57222-313-R-J1-PDC glioblastomas, 653999-131-R-J2-PDC, LG0703-F948-PDC, and 349418-098-R-PDC non-small cell lung carcinomas, 885512-296-R-J2-PDC, 171881-019-R-J1-PDC breast carcinomas and 186277-243-T-J2-PDC and 233499-124-R-J2-PDC colon carcinomas were obtained from the NCI Patient-Derived Models Repository (PDMR, https://pdmr.cancer.gov). The established cell lines NCI/ADR-RES (RRID:CVCL_14520 and OVCAR-5 (RRID:CVCL_1628) ovarian carcinomas, 786-O (RRID:CVCL_1051) and A498 (RRID:CVCL_A498) renal cell carcinoma, NCI-H211 (ATCC, cat. CRL-5824; RRID:CVCL_1529), NCI-H196 (ATCC, cat. CRL-5823, RRID:CVCL_1509), SW 1271 (ATCC, cat. CRL-2177, RRID:CVCL_1716) and NCI-H1876 (ATCC, cat. CRL-5902, RRID:CVCL_1503) small cell lung carcinomas, MDA-MB-231 (RRID:CVCL_0062) and MDA-MB-468 (RRID:CVCL_0419)breast carcinomas (10-12). Pooled donor human umbilical vein endothelial cells (HUVEC, Lonza, cat. CC-2519) and human mesenchymal stem cells (hMSC, Lonza, cat. PT-2501) were purchased from Lonza (Walkersville, MD).
Cell Culture. All cells were maintained in an incubator at 37 degrees C and 5% CO2 with 95% humidity. The PDC lines were cultured according to standard operating procedures established by the NCI PDMR (https://pdmr.cancer.gov). Briefly all PDCs were thawed and cultured in Matrigel-coated flasks prepared with a working solution of 1X Ham's F-12 nutrient mix, without supplementation (Invitrogen, Waltham, MA, cat. 11765054), 100 U/mL penicillin-streptomycin (Invitrogen, cat. 15140122), and 2.5% Matrigel (Corning Inc., Corning, NY, cat. 354248) for the first three passages. […]

[1] = second compound 0.1 µM, first compound 0.000949 µM
[2] = second compound 0.1 µM, first compound 0.003 µM
[3] = second compound 0.1 µM, first compound 0.00949 µM
[4] = second compound 0.1 µM, first compound 0.03 µM
[5] = second compound 0.1 µM, first compound 0.0949 µM
[6] = second compound 0.1 µM, first compound 0.3 µM
[7] = second compound 0.316 µM, first compound 0.000949 µM
[8] = second compound 0.316 µM, first compound 0.003 µM
[9] = second compound 0.316 µM, first compound 0.00949 µM
[10] = second compound 0.316 µM, first compound 0.03 µM
[11] = second compound 0.316 µM, first compound 0.0949 µM
[12] = second compound 0.316 µM, first compound 0.3 µM
[13] = second compound 1 µM, first compound 0.000949 µM
[14] = second compound 1 µM, first compound 0.003 µM
[15] = second compound 1 µM, first compound 0.00949 µM
[16] = second compound 1 µM, first compound 0.03 µM
[17] = second compound 1 µM, first compound 0.0949 µM
[18] = second compound 1 µM, first compound 0.3 µM
[19] = second compound 3.16 µM, first compound 0.000949 µM
[20] = second compound 3.16 µM, first compound 0.003 µM
[21] = second compound 3.16 µM, first compound 0.00949 µM
[22] = second compound 3.16 µM, first compound 0.03 µM
[23] = second compound 3.16 µM, first compound 0.0949 µM
[24] = second compound 3.16 µM, first compound 0.3 µM
[25] = second compound 10 µM, first compound 0.000949 µM
[26] = second compound 10 µM, first compound 0.003 µM
[27] = second compound 10 µM, first compound 0.00949 µM
[28] = second compound 10 µM, first compound 0.03 µM
[29] = second compound 10 µM, first compound 0.0949 µM
[30] = second compound 10 µM, first compound 0.3 µM
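Further: spheroids exposed to agents for 7 days.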
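Wherever viability, T/C is given: 100% = DMSO vehicle control viability.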

| Structure (SMILES) | IC50 (second compound 0.1 µM) [nM] | IC50 (second compound 0.316 µM) [nM] | IC50 (second compound 1 µM) [nM] | IC50 (second compound 3.16 µM) [nM] | IC50 (second compound 10 µM) [nM] | viability, T/C [1] [%] | viability, T/C [2] [%] | viability, T/C [3] [%] | viability, T/C [4] [%] | viability, T/C [5] [%] | viability, T/C [6] [%] | viability, T/C [7] [%] | viability, T/C [8] [%] | viability, T/C [9] [%] | viability, T/C [10] [%] | viability, T/C [11] [%] | viability, T/C [12] [%] | viability, T/C [13] [%] | viability, T/C [14] [%] | viability, T/C [15] [%] | also measured |
| --- | --- | --- | --- | --- | --- | --- | --- | --- | --- | --- | --- | --- | --- | --- | --- | --- | --- | --- | --- | --- | --- |
| CCc1c2c(nc3ccc(O)cc13)-c1cc3c(c(=O)n1C2)COC(=O)[C@]3(O)CC + NC1CC1c1ccc(-c2cccc(O)c2)cc1 | 4.56 | 2.69 | 3.28 | 4.01 | 5.59 | 64.6 | 65.2 | 23.9 | 0.24 | 0.19 | 0.2 | 73.8 | 45.9 | 23.5 | 0.59 | 0.13 | 0.24 | 57.1 | 51.3 | 23.9 | viability, T/C [16]: 0.3%; viability, T/C [17]: 0.16%; viability, T/C [18]: 0.21%; viability, T/C [19]: 78%; viability, T/C [20]: 57.7%; viability, T/C [21]: 25.3%; viability, T/C [22]: 0.56%; viability, T/C [23]: 0.14%; viability, T/C [24]: 0.23%; viability, T/C [25]: 82.4%; viability, T/C [26]: 68%; viability, T/C [27]: 34.7%; viability, T/C [28]: 0.44%; viability, T/C [29]: 0.21%; viability, T/C [30]: 0.33% |
| Nc1ccn(C2OC(CO)C(O)C2(F)F)c(=O)n1 (stereo not given) + NC1CC1c1ccc(-c2cccc(O)c2)cc1 | > 300 | > 300 | > 300 | > 300 | > 300 | 75.3 | 69.9 | 86.8 | 59 | 56 | 58.3 | 62.5 | 83.7 | 73.7 | 64.6 | 64.6 | 67.9 | 77.1 | 79.7 | 79.5 | viability, T/C [16]: 72.8%; viability, T/C [17]: 66.7%; viability, T/C [18]: 57.6%; viability, T/C [19]: 74.4%; viability, T/C [20]: 75.7%; viability, T/C [21]: 83.7%; viability, T/C [22]: 74.1%; viability, T/C [23]: 67.6%; viability, T/C [24]: 85%; viability, T/C [25]: 93.5%; viability, T/C [26]: 79%; viability, T/C [27]: 99.7%; viability, T/C [28]: 73.5%; viability, T/C [29]: 70.3%; viability, T/C [30]: 86.8% |
